Data reported in US11389423B2, “Pharmaceutical composition, excipient for the composition and use of the composition” (priority 2018, dated 2022).

Tested on: rats (male and female)
Test: Single dose (acute) toxicity study in rats
Format: in vivo
Procedure: The single-dose (acute) toxicity study was carried out with different groups of rats and mice (male and female) and according to the procedures recommended by OECD (2001) and ANVISA (2013).
After a 6 h-fasting period, the animals' body weight was determined, and the dose of the synthetic CBD was calculated. Two single doses (1000 and 2000 mg/kg) of synthetic CBD were administered orally (with the aid of a gavage probe) and intraperitoneally in different groups of rats and mice (male and female). Other different groups of rodents were treated with placebo and were considered as control groups.
The animals were carefully observed for any toxicity signs within the first eight hours after treatment, and daily for a period of 14 days. On the 15th day all animals were euthanized, and the respective anatomopathological investigations were performed on the 15th day after the treatments.

[1] = 1000 mg/kg and 2000 mg/kg intraperitoneally, single dose

`C=C(C)[C@@H]1CCC(C)=C[C@H]1c1c(O)cc(CCCCC)cc1O` [CBD-SINT, Cannabidiol] was tested, and the “abdominal contortions during the first 8 hours” value [1] was “occasional abdominal contortions”, the “activity during the first 8 hours of observation” value [1] was “significant decrease in its activity” and the “daily feed and water consumption compared to placebo” value (1000 and 2000 mg/kg, oral or intraperitoneal) was “no change”. For the same compound, the “final body weight and body weight gains vs placebo” value (1000 and 2000 mg/kg, oral or intraperitoneal, 14 days) was “similar”, the “appearance and general behavior pattern until the end of the 14-days observation” value (1000 and 2000 mg/kg, oral or intraperitoneal, after the first 8 h) was “no significant changes” and the “absolute (g) or relative (%) weight of all organs vs placebo” value (after 14 days) was “no significant differences”. The histopathological analyzes (day 15) was “no significant changes”, the “macroscopic examination of vital organs” value (day 15) was “did not disclose any abnormalities” and the “deaths (LD50 not set forth)” value (doses up to 2000 mg/kg orally or intraperitoneally, 14 days) was “no deaths were observed”.
